Measured values published in patent US9517263B2, “Benzonaphthyridine-containing vaccines” (GlaxoSmithKline Biologicals SA, priority 2009, dated 2016).
Like-named read-outs stand apart in the source and are kept apart here. Values belong to the compound of their own block, whether it stands above or below them.

Columns and labels:
[1] = test system: mKC, MCP-1, IL-6, IL-10, IFNg and IL-5; test: Serum cytokine levels in mice (sandwich ELISA); format: in vivo; conditions: i.m., 1, 3 and 24 hours, formulated in the PLG-based particles
Procedure: Mice were also injected intramuscularly with above-described monodispersion of Compound 47 at a dose of 100 μg Compound 47. Serum cytokine levels (mKC, MCP-1, IL-6, IL-10, IFNg and IL-5) were measured at 1, 3 and 24 hours using sandwich ELISA.

[2] = Compound content, recovery and encapsulation efficiency by RP-HPLC; format: physicochemical; conditions: pellet vs supernatant after 10 mM HCl, 30 min
MenB strain NZ98 = test: Bactericidal assay of sera of immunized mice against the MenB strain NZ98; format: in vivo, N. meningitidis; conditions: delivered with PLG as encapsulated or as co-lyophilized, 25 or 100 μg
Procedure: The PLG formulations described above (Vials 1-6) were reconstituted in 1.4 mL of water for injection with gentle mixing. 100 μL of the formulations were injected per mouse, corresponding to 10 μg of each MenB antigen and in case of formulations containing Compound 47, 25 μg or 100 μg of the adjuvant. Each mouse was immunized intramuscularly (50 μL at two sites) on days 0 and 14, and bled on day 28 and on day 56.
For mice injected with MenB antigen, pooled sera for each group was analyzed for bactericidal assay against the MenB strain NZ98 2 weeks post 2nd immunization.
For mice injected with MenB antigen, pooled sera for each group was also analyzed for bactericidal assay against the MenB strain NZ98 6 weeks post 2nd immunization.

[3] = Pharmacokinetic profile of Compound 47 in mice (serum, lymph nodes, muscle; LC-MS); format: in vivo; conditions: i.m. once, 1 or 4 mg/kg, various PLG formulations (Vials 1-5), up to 30 days
Human TLR7 = biological target: T1, Human TLR7 (Homo sapiens, UniProt Q9NYK1); test: Human TLR7 EC50 in HEK293 (Table A); format: cell-based
T1 construct: expressed in transfected cells; host or cells: HEK293
T1 sequence (Q9NYK1 27-1049): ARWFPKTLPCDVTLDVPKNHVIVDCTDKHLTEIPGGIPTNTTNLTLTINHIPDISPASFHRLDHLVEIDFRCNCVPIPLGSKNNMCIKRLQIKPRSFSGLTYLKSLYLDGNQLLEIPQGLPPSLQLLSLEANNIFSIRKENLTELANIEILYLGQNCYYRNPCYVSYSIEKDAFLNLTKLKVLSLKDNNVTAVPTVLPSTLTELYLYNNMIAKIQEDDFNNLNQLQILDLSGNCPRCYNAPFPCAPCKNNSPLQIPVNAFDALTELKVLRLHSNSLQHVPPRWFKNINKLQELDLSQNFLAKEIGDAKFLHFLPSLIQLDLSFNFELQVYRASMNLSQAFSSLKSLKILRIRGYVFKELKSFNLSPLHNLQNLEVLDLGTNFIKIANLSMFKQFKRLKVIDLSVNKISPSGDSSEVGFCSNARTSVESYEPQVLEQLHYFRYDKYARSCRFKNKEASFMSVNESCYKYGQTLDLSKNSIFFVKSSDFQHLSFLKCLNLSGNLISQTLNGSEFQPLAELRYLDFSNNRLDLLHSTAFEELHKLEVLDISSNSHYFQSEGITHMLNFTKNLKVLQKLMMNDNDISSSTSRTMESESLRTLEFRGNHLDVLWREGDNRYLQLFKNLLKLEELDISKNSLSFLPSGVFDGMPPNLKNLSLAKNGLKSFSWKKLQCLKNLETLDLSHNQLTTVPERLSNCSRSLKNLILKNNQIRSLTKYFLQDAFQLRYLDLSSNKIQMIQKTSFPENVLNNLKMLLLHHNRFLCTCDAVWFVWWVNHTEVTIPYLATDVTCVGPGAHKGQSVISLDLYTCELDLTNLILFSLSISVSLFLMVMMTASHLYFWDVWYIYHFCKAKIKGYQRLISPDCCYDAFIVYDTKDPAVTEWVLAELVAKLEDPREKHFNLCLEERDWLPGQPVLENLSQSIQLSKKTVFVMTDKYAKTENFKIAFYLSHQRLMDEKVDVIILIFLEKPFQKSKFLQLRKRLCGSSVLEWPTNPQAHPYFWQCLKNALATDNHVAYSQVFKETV

[4] = Solubility of Compound 6A; format: physicochemical; conditions: for solubility: water, read-out: aqueous solubility

SMILES: Cc1ccc(CCc2cnc3c(N)nc4ccccc4c3c2)c(C)c1 [Compound 47, 2-(2,4-dimethylphenethyl)benzo[f][1,7]naphthyridin-5-amine]
- serum cytokine levels (mKC, MCP-1, IL-6, IL-10, IFNg and IL-5) [1]: low serum cytokines
- amount of Compound 47 encapsulated in PLG particles [2]: > 90%
- protection of the immunized mice against strain NZ98 (MenB strain NZ98): significantly enhances the protection
- level of Compound 47 in serum [3]: < 1000 nM

- EC50 (Human TLR7): 23700 nM
SMILES: COc1ccc(CCc2cnc3c(N)nc4cc(C(O)(P(=O)(O)O)P(=O)(O)O)ccc4c3c2)c(C)c1 [Compound 19A]

- solubility in dichloromethane ([4]; dichloromethane): not soluble in dichloromethane
- solubility ([4]; as base form): < 400 µg/mL
- solubility ([4]; pH 7, as a sodium salt): > 4000 µg/mL
SMILES: Cc1ccc2c(c1)nc(N)c1ncc(CCc3ccc(OCCOCCOCCC(F)(F)P(=O)(O)O)cc3C)cc12 [Compound 6A, 3-(2-(2-(4-(2-(5-amino-8-methylbenzo[f][1,7]naphthyridin-2-yl)ethyl)-3-methylphenoxy)ethoxy)ethoxy)-1,1-difluoropropylphosphonic acid]
